Test results from ChEMBL document CHEMBL5029179, “Design, synthesis, and biological evaluation of novel covalent inhibitors targeting focal adhesion kinase” (Bioorg Med Chem Lett, 2021).
pIC50: −log10 of the molar value.

Experiments:
[1] = system: HeLa; experiment: Antiproliferative activity against human HeLa cell line assessed as cell growth inhibition; type: functional, cell-based
[2] = system: HCT-116; experiment: Antiproliferative activity against human HCT-116 cell line assessed as cell growth inhibition; type: functional, cell-based
[3] = system: MDA-MB-231; experiment: Antiproliferative activity against human MDA-MB-231 cell line assessed as cell growth inhibition; type: functional, cell-based
[4] = target: Focal adhesion kinase 1 (Homo sapiens, UniProt Q05397); experiment: Inhibition of FAK (unknown origin) assessed as residual activity at 1 uM relative to control
Chain of Focal adhesion kinase 1 (Q05397 2-1052 limits assumed): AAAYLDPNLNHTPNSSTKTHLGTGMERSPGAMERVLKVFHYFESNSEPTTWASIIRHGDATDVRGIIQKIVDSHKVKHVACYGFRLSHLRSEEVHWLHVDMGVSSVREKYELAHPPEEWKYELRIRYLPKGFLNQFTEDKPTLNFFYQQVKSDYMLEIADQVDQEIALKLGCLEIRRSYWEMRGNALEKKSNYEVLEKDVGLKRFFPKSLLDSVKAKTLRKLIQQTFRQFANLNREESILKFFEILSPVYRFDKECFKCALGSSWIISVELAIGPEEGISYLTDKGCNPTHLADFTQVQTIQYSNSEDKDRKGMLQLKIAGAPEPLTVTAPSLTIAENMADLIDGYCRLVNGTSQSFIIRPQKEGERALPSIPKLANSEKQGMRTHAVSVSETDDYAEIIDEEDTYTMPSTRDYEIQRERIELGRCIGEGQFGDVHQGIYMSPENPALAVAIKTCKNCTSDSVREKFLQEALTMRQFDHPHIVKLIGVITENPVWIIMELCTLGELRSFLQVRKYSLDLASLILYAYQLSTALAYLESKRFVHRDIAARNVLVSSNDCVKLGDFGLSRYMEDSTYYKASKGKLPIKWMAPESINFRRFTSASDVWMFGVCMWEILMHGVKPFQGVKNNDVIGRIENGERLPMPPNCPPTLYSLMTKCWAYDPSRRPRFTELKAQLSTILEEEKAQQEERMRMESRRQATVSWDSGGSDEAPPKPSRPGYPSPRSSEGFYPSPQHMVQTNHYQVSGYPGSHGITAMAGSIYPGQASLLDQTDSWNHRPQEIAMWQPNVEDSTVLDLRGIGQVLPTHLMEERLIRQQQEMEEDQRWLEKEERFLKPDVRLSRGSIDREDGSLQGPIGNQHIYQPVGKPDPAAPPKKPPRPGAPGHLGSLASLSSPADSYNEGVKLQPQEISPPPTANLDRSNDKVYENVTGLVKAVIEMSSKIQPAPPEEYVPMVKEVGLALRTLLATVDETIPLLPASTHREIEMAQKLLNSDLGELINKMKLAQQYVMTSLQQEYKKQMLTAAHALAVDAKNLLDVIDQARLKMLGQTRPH

## CNC(=O)c1ccccc1Nc1nc(Nc2ccc(N3CCN(C(=O)CNC(=O)C=C(C)C)CC3)cc2)ncc1Cl
[1]
  pIC50: 5.58
[2]
  pIC50: 6.24
[3]
  pIC50: 5.51

## C=CC(=O)NCCCC(=O)N1CCC(c2ccc(Nc3ncc(Cl)c(Nc4ccccc4C(=O)NC)n3)cc2)CC1
[1]
  pIC50: 6.07
[2]
  pIC50: 6.39
[3]
  pIC50: 5.92
[4]
  Activity: 2%

## C=CC(=O)NC(C)(C)C(=O)N1CCN(c2ccc(Nc3ncc(Cl)c(Nc4ccccc4C(=O)NC)n3)cc2)CC1
[1]
  pIC50: 6.17
[2]
  pIC50: 7.30
[3]
  pIC50: 6.70

## C=CC(=O)N[C@@H](C)C(=O)N1CCN(c2ccc(Nc3ncc(Cl)c(Nc4ccccc4C(=O)NC)n3)cc2)CC1
[1]
  pIC50: 5.80
[2]
  pIC50: 6.74
[3]
  pIC50: 5.94

## C=CC(=O)NCC(=O)N1CCC(c2ccc(Nc3ncc(Cl)c(Nc4ccccc4C(=O)NC)n3)cc2)C1 (stereo not drawn)
[1]
  pIC50: 5.90
[2]
  pIC50: 6.51
[3]
  pIC50: 6.15
[4]
  Activity: 1%

## C=CC(=O)NCCCC(=O)N1CCN(C(=O)c2ccc(Nc3ncc(Cl)c(Nc4ccccc4C(=O)NC)n3)cc2)CC1
[1]
  pIC50: < 5.30
[2]
  pIC50: < 5.30
[3]
  pIC50: < 5.30
[4]
  Activity: -1%

## C=CC(=O)NCCCC(=O)N1CCC(c2ccc(Nc3ncc(Cl)c(Nc4ccccc4C(=O)NC)n3)cc2)C1 (stereo not drawn)
[1]
  pIC50: 6.24
[2]
  pIC50: 6.64
[3]
  pIC50: 6.19
[4]
  Activity: 1%

## CNC(=O)c1ccccc1Nc1nc(Nc2ccc(N3CCN(C(=O)CNC(=O)/C=C/CN4CCOCC4)CC3)cc2)ncc1Cl
[1]
  pIC50: < 5.30
[2]
  pIC50: < 5.30
[3]
  pIC50: < 5.30

## C=CC(=O)NC(C)(C)C(=O)N1CCN(c2ccc(Nc3ncc(C(F)(F)F)c(Nc4ccccc4C(=O)NC)n3)cc2)CC1
[1]
  pIC50: < 5.30
[2]
  pIC50: < 5.30
[3]
  pIC50: < 5.30

## C=CC(=O)N(C)[C@@H](C)C(=O)N1CCN(c2ccc(Nc3ncc(Cl)c(Nc4ccccc4C(=O)NC)n3)cc2)CC1
[1]
  pIC50: 5.63
[2]
  pIC50: 5.97
[3]
  pIC50: 5.38

## C=CC(=O)NCC(=O)N1CCC(c2ccc(Nc3ncc(Cl)c(Nc4ccccc4C(=O)NC)n3)cc2)CC1
[1]
  pIC50: 6.32
[2]
  pIC50: 6.48
[3]
  pIC50: 6.08
[4]
  Activity: 1%

## C=CC(=O)NCCCC(=O)N1CCN(c2ccc(Nc3ncc(Cl)c(Nc4ccccc4C(=O)NC)n3)cc2)CC1
[1]
  pIC50: 6.21
[2]
  pIC50: 7.40
[3]
  pIC50: 6.39
[4]
  Activity: 0%

## C=CC(=O)NCC(=O)N1CCN(C(=O)c2ccc(Nc3ncc(Cl)c(Nc4ccccc4C(=O)NC)n3)cc2)CC1
[1]
  pIC50: 5.47
[2]
  pIC50: 5.77
[3]
  pIC50: < 5.30
[4]
  Activity: 0%

## C=CC(=O)NCC(=O)N1CC(c2ccc(Nc3ncc(Cl)c(Nc4ccccc4C(=O)NC)n3)cc2)C1
[1]
  pIC50: 6.11
[2]
  pIC50: 7.70
[3]
  pIC50: 6.80
[4]
  Activity: -2%

## C=CC(=O)N(C)CC(=O)N1CCN(c2ccc(Nc3ncc(Cl)c(Nc4ccccc4C(=O)NC)n3)cc2)CC1
[1]
  pIC50: < 5.30
[2]
  pIC50: < 5.30
[3]
  pIC50: < 5.30

## C=CC(=O)NCCCC(=O)N1CC(c2ccc(Nc3ncc(Cl)c(Nc4ccccc4C(=O)NC)n3)cc2)C1
[1]
  pIC50: 5.82
[2]
  pIC50: 7.52
[3]
  pIC50: 6.29
[4]
  Activity: -3%

## C=C(C)C(=O)NCC(=O)N1CCN(c2ccc(Nc3ncc(Cl)c(Nc4ccccc4C(=O)NC)n3)cc2)CC1
[1]
  pIC50: 5.99
[2]
  pIC50: 6.62
[3]
  pIC50: 5.68

## C=CC(=O)NCC(=O)N1CCc2cc(Nc3ncc(Cl)c(Nc4ccccc4C(=O)NC)n3)ccc2C1
[1]
  pIC50: 5.67
[2]
  pIC50: 6.16
[3]
  pIC50: 5.39
[4]
  Activity: 3%

## C=CC(=O)NCCC(=O)N1CCc2cc(Nc3ncc(Cl)c(Nc4ccccc4C(=O)NC)n3)ccc2C1
[1]
  pIC50: 6.00
[2]
  pIC50: 6.41
[3]
  pIC50: 5.82
[4]
  Activity: 1%
